Common to all, as to assay: agar diffusion method using a paper disk
Test [1] concerns Bacillus subtilis (KCTC1021). The settings on record: 2.5 mg/ml, 48 hours.
For test [2], the system named is Staphylococcus aureus (KCTC1621). The conditions noted are these: 2.5 mg/ml, 48 hours.
For test [3], the system named is Escherichia coli (KCTC7039). The settings on record: 2.5 mg/ml, 48 hours.
Test [4] relates to Candida albicans (KCTC7270). The conditions noted are these: 2.5 mg/ml, 48 hours.
The test system of test [5] is Streptococcus mutans (KCTC3065).

Each structure is given as a SMILES string.

Regarding `COc1ccc(O)c(C(C)(C)C)c1` [BHA, butylated hydroxyanisole], the Inhibition zone worked out at 16.6 mm in test [1]; 16.0 mm in test [2]; 18.4 mm in test [3]; 16.0 mm in test [4]; 3.5 mm in test [5] (Streptococcus mutans, 2.5 mg/ml, 48 hours). The “antibacterial effect (in words)” value in test [5] (against S. mutans) is “little antibacterial effect”.

(Values after patent US20220016193A1, “ANTIBACTERIAL AND ANTIVIRUS COMPOSITION COMPRISING Extract of CANNABIS SATIVA L” (FAMENITY CO., LTD., priority 2020, published 2022).)
